Some test systems named below: CCRF-CEM leukemia; HCC-2998 colon; SR leukemia; T-47D breast; M14 melanoma; 786-0 renal; MDA-MB-231 breast; SK-MEL-2 melanoma; HT29 colon; OVCAR-4 ovarian; UACC-257 melanoma; HCT-116 colon; NCI-H522 lung; COLO 205 colon; MCF7 breast; UACC-62 melanoma; A498 renal; MDA-N; MALME-3M melanoma.
Common to all, as to assay: inhibition of tumour cell growth, NCI panel, 48 h

Molecules are shown by their SMILES.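 Each compound was tested at five concentrations against cells in 96-well plates for 48 hours. At the TGI there is no net growth.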

In the case of `COc1ccc(P2(=S)SP(=S)(c3ccc(Cl)cc3)S2)cc1` (configuration not stated), the TGI in the assay with CCRF-CEM leukemia, with HCC-2998 colon, in the assay on SR leukemia, with T-47D breast, in the assay on M14 melanoma and in the assay with 786-0 renal was more than 100 µM each time. Also, the TGI with MDA-MB-231 breast, in the assay on SK-MEL-2 melanoma, with HT29 colon, with OVCAR-4 ovarian, in the assay with UACC-257 melanoma and in the assay with HCT-116 colon was more than 100 µM in each case. In addition, the TGI with NCI-H522 lung, in the assay with COLO 205 colon, in the assay with MCF7 breast, with UACC-62 melanoma, in the assay with A498 renal and in the assay with MDA-N was more than 100 µM each time. This compound showed a TGI with MALME-3M melanoma of more than 100 µM.
For the compound `C[N+](C)(C)/N=C/c1ccc(O)c(O)c1`, the TGI in the assay on CCRF-CEM leukemia, in the assay with HCC-2998 colon, in the assay on SR leukemia, in the assay with T-47D breast, in the assay with M14 melanoma and in the assay on 786-0 renal was more than 100 µM throughout. In addition, the TGI in the assay on MDA-MB-231 breast, in the assay on SK-MEL-2 melanoma, with HT29 colon, in the assay on OVCAR-4 ovarian, in the assay with UACC-257 melanoma and in the assay on HCT-116 colon was more than 100 µM in each case. The TGI with NCI-H522 lung, in the assay with COLO 205 colon, in the assay on MCF7 breast, in the assay on UACC-62 melanoma, with A498 renal and in the assay with MDA-N was more than 100 µM in each case. Further, the TGI with MALME-3M melanoma is more than 100 µM.
For `CN(C)CC1CCC/C(=C\c2ccc(OC(=O)/C=C/c3ccccc3)cc2)C1=O` (configuration not stated), the TGI in the assay with CCRF-CEM leukemia is 0.808 µM; with HCC-2998 colon, more than 28.1 µM; in the assay on SR leukemia it was more than 100 µM; in the assay with T-47D breast, 2.58 µM; in the assay with M14 melanoma, 5.35 µM; with 786-0 renal, 2.06 µM. The TGI in the assay on MDA-MB-231 breast worked out at 8.2 µM; in the assay on SK-MEL-2 melanoma, 7.79 µM; in the assay with HT29 colon it was 3.75 µM; in the assay with OVCAR-4 ovarian it was 9.44 µM; in the assay with UACC-257 melanoma, 21.2 µM; in the assay on HCT-116 colon, 2.8 µM. Besides, the TGI came out at 3.95 µM in the assay with COLO 205 colon; 1.93 µM with MCF7 breast; 15.8 µM with UACC-62 melanoma; 23.2 µM in the assay with A498 renal; 6.28 µM in the assay on MDA-N; 5.02 µM in the assay on MALME-3M melanoma.
For `CCOC(=O)CSc1nnc(CSc2nc(-c3ccccc3)c(-c3ccccc3)[nH]2)n1-c1ccccc1`, the TGI is more than 100 µM in the assay on CCRF-CEM leukemia; 37.1 µM with HCC-2998 colon; more than 100 µM with SR leukemia; 89.7 µM in the assay on T-47D breast; more than 62.4 µM in the assay on M14 melanoma; more than 62.9 µM with 786-0 renal. Also, the TGI is more than 100 µM with MDA-MB-231 breast; more than 31.6 µM in the assay on SK-MEL-2 melanoma; more than 100 µM with HT29 colon; 48.3 µM in the assay with OVCAR-4 ovarian; more than 67.4 µM in the assay on UACC-257 melanoma; more than 100 µM in the assay on HCT-116 colon. For the same compound, the TGI was more than 100 µM in the assay on NCI-H522 lung; more than 100 µM with COLO 205 colon; more than 100 µM in the assay on MCF7 breast; 71.6 µM in the assay on UACC-62 melanoma; 33.2 µM with A498 renal; more than 100 µM in the assay with MDA-N. The TGI in the assay with MALME-3M melanoma is more than 100 µM.
Consider `CSc1c(C(=O)Nc2ccc(C)cc2)c(N)n(N)c(=O)c1C#N`, for which the TGI in the assay on CCRF-CEM leukemia, in the assay on HCC-2998 colon, in the assay with SR leukemia, with T-47D breast, with M14 melanoma and in the assay on 786-0 renal was more than 100 µM in each case. Moreover, the TGI in the assay on MDA-MB-231 breast, with SK-MEL-2 melanoma, with HT29 colon, in the assay on OVCAR-4 ovarian, in the assay with UACC-257 melanoma and with HCT-116 colon was more than 100 µM throughout. For the same compound, the TGI in the assay with NCI-H522 lung, in the assay with COLO 205 colon, with MCF7 breast, in the assay on UACC-62 melanoma, in the assay with A498 renal and in the assay on MDA-N was more than 100 µM throughout. The TGI with MALME-3M melanoma was more than 100 µM.
In the case of `COc1cccc(C2ON=C(c3ccccc3)N2C23CC4CC(CC(C4)C2)C3)c1` (configuration not stated), the TGI in the assay with CCRF-CEM leukemia, in the assay with HCC-2998 colon, in the assay with SR leukemia, in the assay with T-47D breast, in the assay on M14 melanoma and in the assay on 786-0 renal was more than 10 µM each time. Also, the TGI in the assay on MDA-MB-231 breast, in the assay on SK-MEL-2 melanoma, with HT29 colon, with OVCAR-4 ovarian, with UACC-257 melanoma and in the assay with HCT-116 colon was more than 10 µM each time. Besides, the TGI with NCI-H522 lung, in the assay on COLO 205 colon, in the assay on MCF7 breast, with UACC-62 melanoma, in the assay with A498 renal and in the assay on MDA-N was more than 10 µM throughout. In addition, in the assay with MALME-3M melanoma, the TGI is more than 10 µM.
Turning to `CC(=O)Oc1c2c(c(CC=C(C)C)c3c1C(=O)C1=C[C@@H]4CC5C(C)(C)OC(C/C=C(/C)C(=O)O)(C4=O)[C@@]15O3)OC(C)(CCC=C(C)C)C=C2` (some centres not stated), the TGI in the assay with CCRF-CEM leukemia was determined as 4.75 µM; in the assay with HCC-2998 colon, 1.62 µM; in the assay with SR leukemia it was 53.9 µM; with T-47D breast, 0.439 µM; with M14 melanoma, 0.814 µM; in the assay on 786-0 renal, 0.364 µM. The TGI in the assay with MDA-MB-231 breast turned out to be 0.779 µM; in the assay on SK-MEL-2 melanoma, 0.982 µM; with HT29 colon, 0.598 µM; with OVCAR-4 ovarian, 0.567 µM; with UACC-257 melanoma, 1.36 µM; in the assay with HCT-116 colon, 0.316 µM. Further, the TGI came out at 0.281 µM with NCI-H522 lung; 0.421 µM with COLO 205 colon; 1.4 µM with MCF7 breast; 0.86 µM in the assay on UACC-62 melanoma; 1.82 µM with A498 renal; 0.536 µM in the assay on MDA-N. For the same compound, in the assay on MALME-3M melanoma, the TGI worked out at 0.558 µM.
